# According to publication PMC6556873, “Rapid Covalent-Probe Discovery by Electrophile-Fragment Screening” (Journal of the American Chemical Society, 2019):
# Like-named read-outs stand apart in the source and are kept apart here.
# Assays:
# in vitro [1] = experiment: in vitro; design: species or system CCD841, HEK293; details: human, hb2 cells, read-out: HB-2 Cells Viability (%)
# in vitro [2] = experiment: in vitro; design: species or system HB2, CCD841; details: human, hek293 cells
# BSA = target: T1, BSA (Bos taurus, UniProt P02769); design: Intact protein LC/MS covalent labelling, fragments in pools of five, 200 uM each, 4 °C; details: 24 h, 4 °C, pool of five; 200 µM; covalent
# T1 construct: gene ALB
# T1 sequence (P02769 whole entry, the tested form may be a part): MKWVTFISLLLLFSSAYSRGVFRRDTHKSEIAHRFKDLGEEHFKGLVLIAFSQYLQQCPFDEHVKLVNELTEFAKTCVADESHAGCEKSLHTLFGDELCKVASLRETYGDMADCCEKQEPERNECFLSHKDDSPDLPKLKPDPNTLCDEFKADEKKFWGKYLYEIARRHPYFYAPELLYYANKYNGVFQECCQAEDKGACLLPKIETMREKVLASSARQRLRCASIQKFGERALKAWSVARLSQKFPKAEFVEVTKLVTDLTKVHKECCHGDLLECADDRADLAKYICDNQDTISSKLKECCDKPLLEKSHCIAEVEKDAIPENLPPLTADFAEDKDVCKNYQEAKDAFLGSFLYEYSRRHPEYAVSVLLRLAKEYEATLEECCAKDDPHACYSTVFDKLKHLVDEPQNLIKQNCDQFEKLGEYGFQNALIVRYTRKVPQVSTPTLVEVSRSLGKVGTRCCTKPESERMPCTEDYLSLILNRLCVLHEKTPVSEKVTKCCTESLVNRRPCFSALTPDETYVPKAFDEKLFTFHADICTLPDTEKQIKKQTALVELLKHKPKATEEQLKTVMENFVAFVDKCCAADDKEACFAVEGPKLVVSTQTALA
# OTUB2 (OTUB2A) = target: T2, OTUB2 (OTUB2A) (Homo sapiens, UniProt Q96DC9); design: Intact protein LC/MS covalent labelling, fragments in pools of five, 200 uM each, 4 °C; details: 24 h, 4 °C, pool of five; 200 µM; covalent
# T2 construct: full length residues 1-234, E. coli BL21(DE3)-R3, His tag removed by TEV, construct 27312 Da
# T2 sequence (Q96DC9 1-234): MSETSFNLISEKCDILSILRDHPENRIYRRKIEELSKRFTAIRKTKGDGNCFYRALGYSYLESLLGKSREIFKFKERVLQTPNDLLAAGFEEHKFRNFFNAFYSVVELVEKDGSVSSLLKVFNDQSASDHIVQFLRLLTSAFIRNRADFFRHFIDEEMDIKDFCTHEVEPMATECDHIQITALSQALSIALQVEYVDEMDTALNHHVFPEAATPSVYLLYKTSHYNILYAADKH
# PCAF = target: T3, PCAF (Homo sapiens, UniProt Q92831); design: Intact protein LC/MS covalent labelling, fragments in pools of five, 200 uM each, 4 °C; details: 24 h, 4 °C, pool of five; 200 µM; covalent
# T3 construct: gene KAT2B
# T3 sequence (Q92831 whole entry, the tested form may be a part): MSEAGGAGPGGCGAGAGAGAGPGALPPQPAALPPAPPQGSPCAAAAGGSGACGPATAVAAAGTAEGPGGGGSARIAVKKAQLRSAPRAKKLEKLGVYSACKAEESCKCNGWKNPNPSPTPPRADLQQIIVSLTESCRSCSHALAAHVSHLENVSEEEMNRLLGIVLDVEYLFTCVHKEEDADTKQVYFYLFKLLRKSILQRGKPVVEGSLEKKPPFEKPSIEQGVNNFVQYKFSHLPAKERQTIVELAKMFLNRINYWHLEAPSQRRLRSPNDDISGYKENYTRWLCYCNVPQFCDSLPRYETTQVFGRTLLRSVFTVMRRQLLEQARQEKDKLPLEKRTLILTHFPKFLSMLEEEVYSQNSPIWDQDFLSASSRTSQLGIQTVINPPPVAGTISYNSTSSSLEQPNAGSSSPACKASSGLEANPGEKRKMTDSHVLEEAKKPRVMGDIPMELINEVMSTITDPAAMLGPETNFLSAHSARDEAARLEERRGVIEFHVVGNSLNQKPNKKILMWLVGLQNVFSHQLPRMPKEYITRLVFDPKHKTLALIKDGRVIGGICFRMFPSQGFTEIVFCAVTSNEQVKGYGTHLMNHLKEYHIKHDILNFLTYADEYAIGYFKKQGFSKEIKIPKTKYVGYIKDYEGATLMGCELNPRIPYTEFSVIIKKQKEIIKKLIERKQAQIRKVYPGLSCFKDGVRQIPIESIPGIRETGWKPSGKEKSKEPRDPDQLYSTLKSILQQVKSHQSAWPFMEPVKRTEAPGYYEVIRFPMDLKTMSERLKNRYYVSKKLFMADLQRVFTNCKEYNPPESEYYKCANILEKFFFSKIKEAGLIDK
# NUDT7 = target: T4, NUDT7 (Homo sapiens, UniProt P0C024); design: Intact protein LC/MS covalent labelling, fragments in pools of five, 200 uM each, 4 °C; details: 24 h, 4 °C, pool of five; 200 µM; covalent
# T4 construct: residues 14-235, E. coli, pNIC28-Bsa4, N-terminal His6 tag removed by TEV, construct 26672 Da
# T4 sequence (P0C024 14-235): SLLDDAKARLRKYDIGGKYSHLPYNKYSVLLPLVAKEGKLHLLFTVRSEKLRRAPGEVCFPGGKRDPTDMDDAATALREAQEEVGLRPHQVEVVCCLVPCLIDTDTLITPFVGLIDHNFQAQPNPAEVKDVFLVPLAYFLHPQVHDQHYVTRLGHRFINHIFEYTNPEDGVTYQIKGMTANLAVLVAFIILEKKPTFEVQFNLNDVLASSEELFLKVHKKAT
# in vitro [3] = experiment: in vitro; design: species or system HB2, HEK293; details: human, ccd841 cells
SMILES,BSA (BSA),OTUB2 (OTUB2 (OTUB2A)),PCAF (PCAF),NUDT7 (NUDT7),"viability at 48 h, 10 µM (in vitro [1]) [%]","viability at 48 h, 10 µM (in vitro [2]) [%]","viability at 48 h, 10 µM (in vitro [3]) [%]"
COC(=O)C1CN(C(=O)CCl)c2ccccc2O1 (stereo not drawn) [PCM-0102880],0,0.11,0,0,112,97.5,96.4
CC(c1cc2ccccc2o1)N(C)C(=O)CCl (stereo not drawn) [PCM-0102971],0,0,0,0.66,13.3,10.1,34.1
C=CC(=O)NC1CCCc2cnn(C(C)C)c21 (stereo not drawn) [PCM-0102583],0,0,0,0,105,96.8,120
C=CC(=O)Nc1ccccc1F [PCM-0102856],0,0,0,0,106,84,119
Cc1sc(NC(=O)CCl)c(C#N)c1C [PCM-0102202],0,0,0,0,32.8,14.4,55.2
O=C(CCl)NCC12CC3CC(CC(Br)(C3)C1)C2 [PCM-0102819],0,0.63,0,0.05,109,99.3,95
CC1(NC(=O)CCl)CCS(=O)(=O)C1 (stereo not drawn) [PCM-0102230],0,0,0,0,105,92.6,92.7
O=C(CCl)NC(=O)Nc1ccc2c(c1)OCO2 [PCM-0102333],0,0.53,0,0.29,83.2,82.6,98.4
O=C(CCl)N1CCN(S(=O)(=O)c2ccc(Cl)cc2)CC1 [PCM-0102704],0,0,0,0.25,2.5,2.7,18.8
CC(=O)Nc1ccc(NC(=O)CCl)cc1 [PCM-0102114],0,0,0,0,69.9,56,57.7
O=C(CCl)Nc1cccc(F)c1 [PCM-0102364],0,0,0,0.09,25,5.9,45.7
O=C(CCl)Nc1ccc(C(F)(F)F)cc1 [PCM-0102323],0,0.17,0,0.07,11.1,5.5,53.2
CC1CCCC(NC(=O)NC(=O)CCl)C1C (stereo not drawn) [PCM-0102332],0,0,0,0,48.7,52.5,71
O=C(CCl)Nc1ccccc1I [PCM-0102509],0.1,0,0,0,95.5,99.4,91.1
CCN(C(=O)CCl)c1nc2ccccc2s1 [PCM-0102186],0,0,0,0.33,69.7,69.9,16.1
CC1CCC(NC(=O)CCl)CC1 (stereo not drawn) [PCM-0102913],0,0.08,0,0,96.2,72.4,86.2
O=C(CCl)N1CCN(c2ncc(C(F)(F)F)cc2Cl)CC1 [PCM-0102378],0,0.05,0,0.14,1.8,1.8,2.9
C=CC(=O)N(C)CC(=O)N1c2ccccc2NC(=O)CC1C (stereo not drawn) [PCM-0102729],0,0,0,0,104,107,107
CC(=O)N1CCc2cc(NC(=O)CCl)ccc21 [PCM-0102129],0,0.31,0,0.07,33.4,5.9,50.6
O=C(CCl)Nc1ccc(F)c([N+](=O)[O-])c1 [PCM-0102238],0,0.32,0,0.23,1,0.8,3.7
NC(=O)C1CCN(C(=O)CCl)CC1 [PCM-0102584],0,0,0,0,105,89.8,97.9
C=CC(=O)N1CCCC(Cc2nccn2C)C1 (stereo not drawn) [PCM-0102433],0,0.26,0.44,0.2,94.7,92.9,97.8

# Now from value to compound, other results behind:
BSA (BSA),OTUB2 (OTUB2 (OTUB2A)),PCAF (PCAF),NUDT7 (NUDT7),SMILES,"viability at 48 h, 10 µM (in vitro [1]) [%]","viability at 48 h, 10 µM (in vitro [2]) [%]","viability at 48 h, 10 µM (in vitro [3]) [%]"
0,0,0,0,CC(NC(=O)CCl)C(=O)N1CCCCC1 (stereo not drawn) [PCM-0102598],101,98.7,99.9
0,0,0,0,COCC(=O)NNC(=O)CCl [PCM-0103070],95.3,97.1,85.8
0,0,0,0,C=CC(=O)N1CCN(C(=O)c2ccc(Br)o2)CC1 [PCM-0102804],93.5,84.7,102
0,0,0.25,0.2,C=CC(=O)N1CCC(N)CC1.Cl [PCM-0102844],109,124,98.2
0,0,0,0.34,O=C(CCl)N(c1ccc(F)cc1)C1C=CS(=O)(=O)C1 (stereo not drawn) [PCM-0102868],27.9,6.2,33.4
0,0.25,0,0,O=C(CCl)NCc1cccc(Cl)c1 [PCM-0102174],83.4,74.3,79.9
0,0,0,0,CC(C)N1CCC(NC(=O)CCl)CC1.Cl [PCM-0102748],90.9,97,90.3
0,0,0,0,C=CC(=O)N1CCC(CS(C)(=O)=O)C1 (stereo not drawn) [PCM-0102765],98.4,85.1,101
0,0,0,0,COc1ccc(NC(=O)CCl)cn1 [PCM-0102140],62,44.3,63.7
0,0.83,0,0.11,CCc1cc(C(=O)NNC(=O)CCl)sc1C [PCM-0102300],45.9,75.8,74.3
0,0,0,0.09,CN(Cc1ccsc1)C(=O)CCl [PCM-0102865],49.6,34,76.1
